Starred links: 1 amine or outer side, 2 acyl side, 3 side chain; linkers in the order of their positions; H or OH if unused. Positions of bridges follow the written chain, without caps; N, C: chain ends. Non-standard residues stand in square brackets, D forms with d. Residues, ends and D or L forms follow the SMILES beside them. Groups on a side chain read outwards from the residue. *: point of attachment. β3hPhg(4-(4-MeThiazol-5-yl)) = Cc1ncsc1-c1ccc([C@@H](CC(=O)[*:2])N[*:1])cc1; JQ1acid = Cc1sc2c(c1C)C(c1ccc(Cl)cc1)=N[C@@H](CC(=O)*)c1nnc(C)n1-2; dPhg(4-(4-Me-thiazol-5-yl)) = Cc1ncsc1-c1ccc([C@@H](N)C(=O)O)cc1; Phg(4-(4-Me-thiazol-5-yl)) = Cc1ncsc1-c1ccc([C@H](N)C(=O)O)cc1; X2 = COc1ccc2c(c1)C(c1ccc(Cl)cc1)=N[C@@H](CC(=O)*)c1nnc(C)n1-2; X12 = Cc1sc2c(c1C)C(c1ccc(Cl)cc1)=N[C@H](CC(=O)*)c1nnc(C)n1-2; X6 = Cc1ncsc1-c1ccc([C@H](CC(=O)[*:2])N[*:1])cc1; dBip = N[C@H](Cc1ccc(-c2ccccc2)cc1)C(=O)O; NHCH2CH2SCH2CO = O=C(CSCCN[*:1])[*:2]; Hyp = O=C(O)[C@@H]1C[C@@H](O)CN1; d4Pal = N[C@H](Cc1ccncc1)C(=O)O; Tle = CC(C)(C)[C@H](N)C(=O)O; AEEEA = NCCOCCOCCOCC(=O)O; dDap = NC[C@@H](N)C(=O)O; Ahx = NCCCCCC(=O)O; AEA = NCCOCC(=O)O
biological target: T1, BRD4 (Homo sapiens, UniProt O60885); assay: BRD4 degradation assay in EOL1 cells (immunofluorescence imaging); format: cell-based; conditions: EoL-1 eosinophilic leukemia cells, 4 hours treatment, nuclear BRD4 immunofluorescence
T1 construct: Mean 488 intensity of BRD4 quantitated in nuclear region; endogenous in cells; host or cells: EoL-1 eosinophilic leukemia cells
Protocol: BRD4 Degradation Assay in EOL1 Cells
EoL-1 eosinophilic leukemia cells were seeded on day 1 at a density of 45,000 cells per well in Corning PureCoat Amine Microplates, (Corning #354719) in 45 μL/well of assay media (RPMI, 10% FBS, containing L-glutamine). After cells attached to cell plate, compounds were serially diluted ⅓ in dimethylsulfoxide (DMSO) to create 20-point dilutions across a 384 well v-bottom polypropylene microplate (Greiner #781091). 2 μL of each sample from the serial dilution was transferred to 98 μL of assay media as an intermediate dilution. 5 μL of each well of the intermediate dilution was added to 45 μL of cell plate. Columns 1, 2, 23 and 24 were treated with only 0.2% final concentration of DMSO for data normalization as “neutral controls”. After compound treatment, cell plates were stored in a 37° C. incubator for 4 hours. After 4 hours cells were fixed in 3.7% w/v final concentration of paraformaldehyde by addition of 15 μL of 16% w/v paraformaldehyde (Electron Microscopy Sciences #15710-S) directly to the 50 μL media and compound in the cell plate. Cell plate was incubated at RT for 20 minutes. Well contents were aspirated and washed with 100 μL/well PBS 3 times. 50 ul/well of phosphate Buffered Saline (PBS) (pH 7.5) containing 0.5% w/v bovine serum albumen, 0.5% w/v Triton X-100 (Block/Permeabilization Buffer) was added to each well. Samples were incubated for 20 minutes. Well contents were aspirated and washed 3 times with 100 μL/well of PBS. PBS was aspirated from the well and 50 μL per well of EoL-1 Block Buffer (PBS containing 10% Normal Goat Serum (AbCam #ab7481)) was added to each well. Plates were incubated at room temperature for 30 minutes. Block buffer was decanted from the wells. Immunofluorescence staining of BRD4 was carried out by diluting mAB Anti-BRD4 [EPR5150] antibody (Abcam 128874) 1:500 into Antibody Dilution Buffer (PBS, 2% Normal Goat Serum). 25 μL per well of BRD4 antibody diluted in buffer was added and incubated overnight at 4° C.
On day-2 samples were washed 3 times with 100 μL/well of PBS. 25 μL/well of secondary antibody solution (Goat Anti-Rabbit IgG, DyLight 488 Conjugated Highly Cross-adsorbed Thermo Fisher #35553) and Hoechst 33342 1 μg/ml diluted in Antibody Dilution Buffer) were dispensed into each well. Hoechst 33342 only was added to bottom 3 columns for data normalization as “inhibitor controls”. Samples were incubated for 2 hours at room temperature. Samples were washed 3 times with 100 μL PBS. Quantitative fluorescence imaging of BRD4 was carried out using an Opera Phenix High-Content Screening System. Fluorescent images of the samples were captured using 488 nm and 405 nm channels. Hoechst channel was used to identify nuclear region. Mean 488 intensity of BRD4 quantitated in nuclear region. Data analysis was carried out using Genedata Screener, with DMSO and no primary antibody control treated samples being used to define the 0% and 100% changes in BRD4. The dose-response log(inhibitor) vs. response used to define the inflexion point of curve (DC50) and the plateau of the maximal effect.
The individual topological polar surface area (TPSA) and cLogP values were calculated using Chemdraw v. 15.1 (PerkinElmer). Half life of the ternary VHL/BD1 and VHL/BD2 complexes, DC50 of BRD4 in EOL1 cells, topological polar surface area of a molecule (TPSA) and c log P (lipophilicity) for compounds described herein are provided in Table 3.

| SMILES | DC50 [nM] |
| --- | --- |
| Cc1ncsc1-c1ccc([C@H]2NC(=O)[C@@H]3C[C@@H](O)CN3C(=O)[C@H](C(C)(C)C)NC(=O)CCCCCNC(=O)[C@@H](CNC(=O)C[C@@H]3N=C(c4ccc(Cl)cc4)c4c(sc(C)c4C)-n4c(C)nnc43)NC(=O)CNC2=O)cc1 [Compound 38] (cyclo([Ahx][Tle][Hyp][dPhg(4-(4-Me-thiazol-5-yl))]G[dDap](JQ1acid))) | < 1000 |
| Cc1ncsc1-c1ccc([C@@H]2NC(=O)[C@@H]3C[C@@H](O)CN3C(=O)[C@H](C(C)(C)C)NC(=O)CCCCCNC(=O)[C@@H](CNC(=O)C[C@@H]3N=C(c4ccc(Cl)cc4)c4c(sc(C)c4C)-n4c(C)nnc43)NC(=O)CNC2=O)cc1 [Compound 39] (cyclo([Ahx][Tle][Hyp][Phg(4-(4-Me-thiazol-5-yl))]G[dDap](JQ1acid))) | < 1000 |
| Cc1sc2c(c1C)C(c1ccc(Cl)cc1)=N[C@@H](CC(=O)NC[C@H]1NC(=O)CNC(=O)[C@@H](Cc3ccc(-c4ccccc4)cc3)NC(=O)[C@@H]3C[C@@H](O)CN3C(=O)[C@H](C(C)(C)C)NC(=O)COCCNC1=O)c1nnc(C)n1-2 [Compound 40] (cyclo([AEA][Tle][Hyp][dBip]G[dDap](JQ1acid))) | < 50 |
| Cc1sc2c(c1C)C(c1ccc(Cl)cc1)=N[C@@H](CC(=O)NC[C@H]1NC(=O)[C@@H](C)NC(=O)[C@@H](Cc3ccc(-c4ccccc4)cc3)NC(=O)[C@@H]3C[C@@H](O)CN3C(=O)[C@H](C(C)(C)C)NC(=O)COCCNC1=O)c1nnc(C)n1-2 [Compound 41] (cyclo([AEA][Tle][Hyp][dBip][dA][dDap](JQ1acid))) | < 50 |
| Cc1sc2c(c1C)C(c1ccc(Cl)cc1)=N[C@@H](CC(=O)NC[C@H]1NC(=O)[C@@H](C(C)C)NC(=O)[C@@H](Cc3ccc(-c4ccccc4)cc3)NC(=O)[C@@H]3C[C@@H](O)CN3C(=O)[C@H](C(C)(C)C)NC(=O)COCCNC1=O)c1nnc(C)n1-2 [Compound 42] (cyclo([AEA][Tle][Hyp][dBip][dV][dDap](JQ1acid))) | < 50 |
| Cc1sc2c(c1C)C(c1ccc(Cl)cc1)=N[C@@H](CC(=O)NC[C@H]1NC(=O)[C@@H](Cc3ccncc3)NC(=O)[C@@H](Cc3ccc(-c4ccccc4)cc3)NC(=O)[C@@H]3C[C@@H](O)CN3C(=O)[C@H](C(C)(C)C)NC(=O)COCCNC1=O)c1nnc(C)n1-2 [Compound 43] (cyclo([AEA][Tle][Hyp][dBip][d4Pal][dDap](JQ1acid))) | < 50 |
| Cc1sc2c(c1C)C(c1ccc(Cl)cc1)=N[C@@H](CC(=O)NC[C@H]1NC(=O)[C@@H](Cc3ccccc3)NC(=O)[C@@H](Cc3ccc(-c4ccccc4)cc3)NC(=O)[C@@H]3C[C@@H](O)CN3C(=O)[C@H](C(C)(C)C)NC(=O)COCCNC1=O)c1nnc(C)n1-2 [Compound 44] (cyclo([AEA][Tle][Hyp][dBip][dF][dDap](JQ1acid))) | < 50 |
| Cc1sc2c(c1C)C(c1ccc(Cl)cc1)=N[C@@H](CC(=O)NC[C@H]1NC(=O)[C@@H](Cc3ccc(-c4ccccc4)cc3)NC(=O)[C@@H](Cc3ccc(-c4ccccc4)cc3)NC(=O)[C@@H]3C[C@@H](O)CN3C(=O)[C@H](C(C)(C)C)NC(=O)COCCNC1=O)c1nnc(C)n1-2 [Compound 45] (cyclo([AEA][Tle][Hyp][dBip][dBip][dDap](JQ1acid))) | < 1000 |
| Cc1ncsc1-c1ccc([C@H]2NC(=O)[C@@H]3C[C@@H](O)CN3C(=O)[C@H](C(C)(C)C)NC(=O)CSCCNC(=O)[C@@H](CNC(=O)C[C@@H]3N=C(c4ccc(Cl)cc4)c4c(sc(C)c4C)-n4c(C)nnc43)NC(=O)CNC2=O)cc1 [Compound 46] (cyclo(G[dDap](JQ1acid)[NHCH2CH2SCH2CO][Tle][Hyp][dPhg(4-(4-Me-thiazol-5-yl))])) | < 1000 |
| Cc1ncsc1-c1ccc([C@@H]2NC(=O)[C@@H]3C[C@@H](O)CN3C(=O)[C@H](C(C)(C)C)NC(=O)CSCCNC(=O)[C@@H](CNC(=O)C[C@@H]3N=C(c4ccc(Cl)cc4)c4c(sc(C)c4C)-n4c(C)nnc43)NC(=O)CNC2=O)cc1 [Compound 47] (cyclo(G[dDap](JQ1acid)[NHCH2CH2SCH2CO][Tle][Hyp][Phg(4-(4-Me-thiazol-5-yl))])) | > 20000 |
| Cc1sc2c(c1C)C(c1ccc(Cl)cc1)=N[C@@H](CC(=O)NC[C@H]1NC(=O)CNC(=O)[C@@H](Cc3ccc(-c4ccccc4)cc3)NC(=O)[C@@H]3C[C@@H](O)CN3C(=O)[C@H](C(C)(C)C)n3cc(nn3)COCCNC1=O)c1nnc(C)n1-2 [Compound 48] | < 50 |
| Cc1ncsc1-c1ccc([C@H]2NC(=O)[C@@H]3C[C@@H](O)CN3C(=O)[C@H](C(C)(C)C)NC(=O)CSC[C@H](C(N)=O)NC(=O)[C@@H](CNC(=O)COCCOCCOCCNC(=O)C[C@@H]3N=C(c4ccc(Cl)cc4)c4c(sc(C)c4C)-n4c(C)nnc43)NC(=O)CNC2=O)cc1 [Compound 49] ({CH2CO}-[Tle][Hyp][dPhg(4-(4-Me-thiazol-5-yl))]G[dDap]([AEEEA-JQ1acid])[dC]-NH2; thioether N-6) | > 20000 |
| COc1ccc2c(c1)C(c1ccc(Cl)cc1)=N[C@@H](CC(=O)NC[C@H]1NC(=O)CNC(=O)[C@@H](c3ccc(-c4scnc4C)cc3)NC(=O)[C@@H]3C[C@@H](O)CN3C(=O)[C@H](C(C)(C)C)NC(=O)CSC[C@H](C(N)=O)NC1=O)c1nnc(C)n1-2 [Compound 50] ({CH2CO}-[Tle][Hyp][dPhg(4-(4-Me-thiazol-5-yl))]G[dDap](X2)[dC]-NH2; thioether N-6) | < 1000 |
| COc1ccc2c(c1)C(c1ccc(Cl)cc1)=N[C@@H](CC(=O)NC[C@H]1NC(=O)CNC(=O)[C@H](c3ccc(-c4scnc4C)cc3)NC(=O)[C@@H]3C[C@@H](O)CN3C(=O)[C@H](C(C)(C)C)NC(=O)CSC[C@H](C(N)=O)NC1=O)c1nnc(C)n1-2 [Compound 51] ({CH2CO}-[Tle][Hyp][Phg(4-(4-Me-thiazol-5-yl))]G[dDap](X2)[dC]-NH2; thioether N-6) | > 20000 |
| COc1ccc2c(c1)C(c1ccc(Cl)cc1)=N[C@@H](CC(=O)NC[C@H]1NC(=O)[C@@H](C(C)C)NC(=O)[C@@H](Cc3ccc(-c4ccccc4)cc3)NC(=O)[C@@H]3C[C@@H](O)CN3C(=O)[C@H](C(C)(C)C)NC(=O)COCCNC1=O)c1nnc(C)n1-2 [Compound 52] (cyclo([AEA][Tle][Hyp][dBip][dV][dDap](X2))) | < 50 |
| Cc1ncsc1-c1ccc([C@H]2NC(=O)[C@@H]3C[C@@H](O)CN3C(=O)[C@H](C(C)(C)C)NC(=O)CSC[C@H](C(N)=O)NC(=O)[C@@H](CNC(=O)C[C@H]3N=C(c4ccc(Cl)cc4)c4c(sc(C)c4C)-n4c(C)nnc43)NC(=O)CNC2=O)cc1 [Compound 53] ({CH2CO}-[Tle][Hyp][dPhg(4-(4-Me-thiazol-5-yl))]G[dDap](X12)[dC]-NH2; thioether N-6) | > 20000 |
| Cc1ncsc1-c1ccc([C@@H]2CC(=O)NCC(=O)N[C@H](CNC(=O)C[C@@H]3N=C(c4ccc(Cl)cc4)c4c(sc(C)c4C)-n4c(C)nnc43)C(=O)NCCOCC(=O)N[C@@H](C(C)(C)C)C(=O)N3C[C@H](O)C[C@H]3C(=O)N2)cc1 [Compound 54] (cyclo([AEA][Tle][Hyp][X6]G[dDap](JQ1acid))) | < 50 |
| Cc1ncsc1-c1ccc([C@H]2CC(=O)NCC(=O)N[C@H](CNC(=O)C[C@@H]3N=C(c4ccc(Cl)cc4)c4c(sc(C)c4C)-n4c(C)nnc43)C(=O)NCCOCC(=O)N[C@@H](C(C)(C)C)C(=O)N3C[C@H](O)C[C@H]3C(=O)N2)cc1 [Compound 55] (cyclo([AEA][Tle][Hyp][β3hPhg(4-(4-MeThiazol-5-yl))]G[dDap](JQ1acid))) | < 1000 |
| Cc1sc2c(c1C)C(c1ccc(Cl)cc1)=N[C@@H](CC(=O)NC[C@H]1NC(=O)[C@@H](C)NC(=O)[C@@H](Cc3ccc(-c4ccccc4)cc3)NC(=O)[C@@H]3C[C@@H](O)CN3C(=O)[C@H](C(C)(C)C)n3cc(nn3)COCCNC1=O)c1nnc(C)n1-2 [Compound 56] | < 50 |

From patent publication US12187816B2, “Macrocyclic compounds and methods of use thereof” (Genentech, Inc., priority 2020, dated 2025)
